Laboratory results from patent US20040002505A1, “Medicinal compositions for cocominant use as anticancer agent” (priority 2000, published 2004).
Structures can show the parent of a compound that is named as a salt. Where two headings read alike, the source gives them in different places.

Assays:
[1] = tested on: Human colon cancer strain HCT15; assay: Combined use of E7070 and Gemcitabine in human colon cancer HCT15 xenograft model; type: in vivo, nude mouse; settings: used in combination with E7070; no data given
Source text: (§1) Cancer Chemother Pharmacol. 1992;30(1):25-30; (ii)Enhancement of vincristine cytotoxicity in drug-resistant cells by simultaneous treatment with onconase, an antitumor ribonuclease. J Natl Cancer Inst. 1996 June 5;88(11):747-53; (iii)Effects of growth hormone and testosterone on cortical bone formation and bone density in aged orchiectomized rats. Bone. 1999 May;24(5):491-7).

[2] = tested on: Human colon cancer strain HCT15; assay: Combined use of E7070 and MMC in human colon cancer HCT15 xenograft model; settings: alone or in combination; for Toxicity Dead/Treated: E7070 25 mg/kg/day QDx5, MMC 4.19 mg/kg/day QDx1; for Tx4 (days) mean ± S.D.: HCT15 xenograft, nude mice, iv, E7070 25 mg/kg/day QDx5 (day 1-5; combination line prints 30 mg/kg/day), MMC 4.19 mg/kg/day QDx1 (day 1)
Source text: as §1

[3] = tested on: Human colon cancer strain HCT15; settings: alone or in combination; for Toxicity Dead/Treated: E7070 30 mg/kg/day QDx5, CPT-11 75 mg/kg/day Q4Dx3; for Tx4 (days) mean ± S.D.: HCT15 xenograft, nude mice, iv, E7070 30 mg/kg/day QDx5 (day 1-5), CPT-11 75 mg/kg/day Q4Dx3 (day 1, 5, 9)
Source text: as §1

[4] = tested on: Human colon cancer strain SW620; settings: E7070 25 mg/kg/day day 1-5, CPT-11 62.5 mg/kg/day day 1, 5, 9, alone or simultaneous
Source text: as §1

[5] = tested on: Human non-small cell lung cancer LU-99; settings: alone or simultaneous
Source text: as §1

[6] = used in combination with E7070; model and data not given
[7] = tested on: Human colon cancer strain Colo320D.M.; assay: Combined use of E7070 and 5-FU in human colon cancer Colo320D.M. xenograft model; settings: alone or simultaneous; for Toxicity Dead/Treated: E7070 30 mg/kg/day day 1-5, 5-FU 60 mg/kg/day day 1, 5, 9
Source text: as §1

[8] = E7070 25 mg/kg/day day 1-5, CDDP 7.5 mg/kg/day day 1

For Cl.Nc1ccn([C@@H]2O[C@H](CO)[C@@H](O)C2(F)F)c(=O)n1 [gemcitabine hydrochloride, 2′-deoxy-2′,2′-difluoro-cytidine hydrochloride], the “synergistic effect, antitumor activity” value [1] was “excellent antitumor activity”.

With CO[C@@]12[C@H](COC(N)=O)C3=C(C(=O)C(C)=C(N)C3=O)N1C[C@@H]1N[C@@H]12 [MMC, [1aS-(1aα,8β,8aα,8bα)]-6-amino-8-[[(aminocarbonyl)oxy]methyl]1,1a,2,8,8a,8b-hexahydro-8a-methoxy-5-methylazirino[2′,3′:3,4]pyrrolo[1,2-a]indole-4,7-dione] the “Toxicity Dead/Treated” value [2] was 0/6 and the “Tx4 (days) mean ± S.D.” value [2] was 16.2 ± 3.4 days.

With CCc1c2c(nc3ccc(OC(=O)N4CCC(N5CCCCC5)CC4)cc13)-c1cc3c(c(=O)n1C2)COC(=O)[C@]3(O)CC [CPT-11, [1,4′-Bipiperidine]-1′-carboxylic acid (S)-4,11-diethyl-3,4,12,14-tetrahydro-4-hydroxy-3,14-dioxo-1H-pyrano-[3′,4′:6,7]-indolizino[1,2-b]quinolin-9-yl ester Hydrochloride trihydrate] the “Toxicity Dead/Treated” value [3] was 0/6, the “Tx4 (days) mean ± S.D.” value [3] was 17.8 ± 1.0 days and the “Toxicity Dead/Treated” value [4] was 0/6.

With cis-diamminedichloroplatinum [CDDP] the “Toxicity Dead/Treated” value [5, 8] was 0/6, the “Tx4 (days) mean ± S.D.” value ([5]; LU-99 xenograft, nude mice, iv, E7070 25 mg/kg/day QDx5 (day 1-5), CDDP 7.5 mg/kg/day QDx1 (day 1)) was 10.7 ± 0.5 days and the “Toxicity mRBW mean” value ([5]; minimum relative body weight, day of minimum in parentheses in the cell, E7070 25 mg/kg/day day 1-5, CDDP 7.5 mg/kg/day day 1) was 0.95(5).

With COc1cccc2c1C(=O)c1c(O)c3c(c(O)c1C2=O)C[C@@](O)(C(=O)CO)C[C@@H]3O[C@H]1C[C@H](N)[C@H](O)[C@H](C)O1 [doxorubicin, 10-[(3-amino-2,3,6-trideoxy-α-L-lyxo-hexopyranosyl)oxy]-7,8,9,10-tetrahydro-6,8,11-trihydroxy-8-(hydroxyacetyl)-1-methoxy-(8S-cis)-5,12-naphthacenedione] the “synergistic effect, antitumor activity” value [6] was “excellent antitumor activity”.

With NS(=O)(=O)c1ccc(S(=O)(=O)Nc2cccc3c(Cl)c[nH]c23)cc1 [E7070, N-(3-chloro-1H-indol-7-yl)-4-sulfamoylbenzenesulfonamide] the “Toxicity Dead/Treated” value [3] was 0/6, the “Tx4 (days) mean ± S.D.” value [3] was 18.7 ± 2.0 days and the “Toxicity Dead/Treated” value [4] was 0/6. For the same molecule, the “mRTV mean ± S.D.” value ([4]; minimum relative tumor volume, day of minimum in parentheses in the cell) was 0.76 ± 0.42(12), the “Toxicity Dead/Treated” value [5, 8] was 0/6 and the “mRTV mean ± S.D.” value ([5]; minimum relative tumor volume, E7070 25 mg/kg/day day 1-5, CDDP 7.5 mg/kg/day day 1) was 0.75 ± 0.16. For the same molecule, the “Toxicity Dead/Treated” value [2] was 0/6, the “Tx4 (days) mean ± S.D.” value [2] was 12.7 ± 2.2 days and the “Toxicity Dead/Treated” value [7] was 0/6.

With O=c1[nH]cc(F)c(=O)[nH]1 [5-FU, 5-fluoro-2,4-(1H,3H)-pyrimidinedione] the “Tx4 (days) mean ± S.D.” value ([7]; Colo320D.M. xenograft, nude mice, iv, E7070 30 mg/kg/day QDx5 (day 1-5), 5-FU 60 mg/kg/day Q4Dx3 (day 1, 5, 9)) was 10.0 ± 0.7 days and the “Toxicity Dead/Treated” value [7] was 0/6.
